A short description of experiment [1]: Inhibition of protein phosphatase (PP2A) at 250 uM.
For the next experiment, the species on record is Homo sapiens. In words: Inhibition of protein phosphatase (PP2A) at 10 uM using fluorescein diphosphate.
Experiment [2] is described as follows: Inhibitory activity against protein phosphatase (PP2A) at 1 uM using fluorescein diphosphate.
Experiment [3] is described as follows: Inhibition of protein phosphatase (PP2A) at 100 uM.
The test system of experiment [4] is Serine/threonine-protein phosphatase 2A catalytic subunit alpha. Description: Inhibitory activity against protein phosphatase (PP2A) at concentration of 10 uM using fluorescein diphosphate as substrate.
For experiment [5] the test system is unchanged. In words: Inhibitory activity against protein phosphatase (PP2A) at concentration of 100 uM using fluorescein diphosphate as substrate.
The target of experiment [6] is T1, Serine/threonine-protein phosphatase 2A activator (Homo sapiens) (UniProt Q15257).
T1 sequence (whole entry): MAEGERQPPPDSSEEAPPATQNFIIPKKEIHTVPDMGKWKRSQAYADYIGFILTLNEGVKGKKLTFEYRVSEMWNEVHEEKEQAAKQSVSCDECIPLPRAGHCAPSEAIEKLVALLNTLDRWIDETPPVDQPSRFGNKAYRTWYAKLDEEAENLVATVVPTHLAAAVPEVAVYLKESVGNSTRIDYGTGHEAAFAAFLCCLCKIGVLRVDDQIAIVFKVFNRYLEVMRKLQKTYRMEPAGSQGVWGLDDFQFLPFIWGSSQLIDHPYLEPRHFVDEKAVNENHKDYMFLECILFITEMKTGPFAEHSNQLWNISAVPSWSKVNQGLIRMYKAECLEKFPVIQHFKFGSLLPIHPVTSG
Description: Inhibitory activity against protein phosphatase (PP2A) at concentration of 250 uM using fluorescein diphosphate as substrate.

Experiment [7] has as its system Serine/threonine-protein phosphatase 2A catalytic subunit alpha. In words: Inhibitory activity against protein phosphatase (PP2A) at concentration of 1 uM using fluorescein diphosphate as substrate.
Experiment [8] has the same test system. Description: Inhibitory activity against protein phosphatase (PP2A) at a concentration of 200 uM using fluorescein diphosphate as substrate.
For experiment [9] the test system is unchanged. In words: Inhibitory activity against protein phosphatase (PP2A) at a concentration of 125 uM using fluorescein diphosphate as substrate.
For experiment [10] the test system is unchanged. Description: Inhibitory activity against protein phosphatase (PP2A) at a concentration of 150 uM using fluorescein diphosphate as substrate.
Experiment [11] deals with T1, Serine/threonine-protein phosphatase 2A activator (Homo sapiens). Description: Inhibitory activity against protein phosphatase (PP2A) at a concentration of 150 uM using fluorescein diphosphate as substrate.
The target is the same in experiment [12]. In words: Inhibitory activity against protein phosphatase (PP2A) at a concentration of 100 uM using fluorescein diphosphate as substrate.
For experiment [13] the target is unchanged. In words: (§1) Inhibitory activity against protein phosphatase (PP2A) at a concentration of 250 uM using fluorescein diphosphate as substrate.
Experiment [14] has as its target T2, Serine/threonine-protein phosphatase 2A 55 kDa regulatory subunit B alpha isoform (Homo sapiens) (UniProt P63151).
T2 sequence (whole entry): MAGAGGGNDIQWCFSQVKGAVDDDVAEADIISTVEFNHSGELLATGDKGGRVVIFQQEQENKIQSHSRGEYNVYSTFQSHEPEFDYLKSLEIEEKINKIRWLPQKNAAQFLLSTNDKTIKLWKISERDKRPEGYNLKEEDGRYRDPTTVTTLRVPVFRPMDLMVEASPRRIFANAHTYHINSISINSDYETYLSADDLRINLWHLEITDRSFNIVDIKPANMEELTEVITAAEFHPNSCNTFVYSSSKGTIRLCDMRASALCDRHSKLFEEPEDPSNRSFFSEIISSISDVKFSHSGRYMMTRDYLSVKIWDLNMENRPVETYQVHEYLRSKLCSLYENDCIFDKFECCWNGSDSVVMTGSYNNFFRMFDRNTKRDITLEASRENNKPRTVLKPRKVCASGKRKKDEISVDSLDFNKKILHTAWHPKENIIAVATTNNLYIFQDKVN
The description is as §1.

This passage reports inhibition results from ChEMBL document CHEMBL1136676, “The inhibitory effects of squalene-derived triterpenes on protein phosphatase PP2A” (Bioorg Med Chem Lett, 2003).

The structures appear in SMILES notation.

As a reminder, the inhibition is the percentage by which the read-out fell short of the control.

As for `CC(C)(O)[C@H]1CC[C@](C)([C@@H](O)CC[C@](O)(CO)C2=CC[C@H]3O[C@@H]([C@]4(C)CC[C@@H](Br)C(C)(C)O4)CC[C@]3(C)O2)O1`, the inhibition in experiment [1] came to 100%; in the experiment filed under Homo sapiens, 93.2%; in experiment [2], 52.8%; in experiment [3], 99.1%.

Take `C=C(CC[C@@H](O)[C@]1(C)CC[C@H](C(C)(C)O)O1)[C@H]1CC[C@H]2O[C@@H]([C@]3(C)CC[C@@H](Br)C(C)(C)O3)CC[C@]2(C)O1`: the inhibition in experiment [4] came out at 23.7%; in experiment [5], 66.8%; in experiment [6] it was 95.3%; in experiment [7] it was 7.5%.

As for `CC(C)(O)[C@H]1CC[C@](C)([C@@H](O)CC[C@@](O)(CO)C2=CC[C@H]3O[C@@H]([C@]4(C)CC[C@@H](Br)C(C)(C)O4)CC[C@]3(C)O2)O1`, the inhibition in [1] worked out at 97.8%; in the experiment listed under Homo sapiens it was 31.8%; in experiment [2] it was 15.2%; in [3], 89.6%.

As for `C/C(=C/C[C@@H](O)[C@]1(C)CC[C@H](C(C)(C)O)O1)[C@H]1CC[C@H]2O[C@@H]([C@]3(C)CC[C@@H](Br)C(C)(C)O3)CC[C@]2(C)O1`, the inhibition in experiment [8] is 35.8%; in [1], 59.8%; in experiment [9], 18.8%; in [10] it was 32.7%; in [3], 6.5%.

On to `C=C(CC[C@H](O)[C@@]1(C)CC[C@H](C(C)(C)O)O1)[C@H]1CC[C@H]2O[C@@H]([C@]3(C)CC[C@@H](Br)C(C)(C)O3)CC[C@@]2(C)O1`, for which the inhibition in experiment [8] was 47.8%; in experiment [1], 66.4%; in experiment [9], 24%; in experiment [3], 11.4%; in experiment [11], 26.1%.

For the molecule `C=C(CC[C@H](O)[C@@]1(C)CC[C@H](C(C)(C)O)O1)[C@H]1CC[C@H]2O[C@@H]([C@]3(C)CCC(=O)O3)CC[C@]2(C)O1`, the inhibition is 63.2% in experiment [1], 40.1% in the experiment filed under Homo sapiens, 33.7% in experiment [2] and 49.4% in experiment [3].

`C=C(CC[C@H](O)[C@@]1(C)CC[C@H](C(C)(C)O)O1)[C@H]1CC[C@H]2O[C@]3(C)CC[C@@H](Br)C(C)(C)O[C@H]3CC[C@]2(C)O1`: the inhibition in [4] turned out to be 20.4%; in experiment [1], 66.5%; in [5] it was 59.7%; in experiment [7] it was 18.9%.

Take `C=C(CC[C@H](O)[C@@]1(C)CC[C@H](C(C)(C)O)O1)[C@H]1CC[C@H]2O[C@@H]([C@]3(C)CC[C@@H](Br)C(C)(C)O3)CC[C@]2(C)O1`: the inhibition came to 25.2% in experiment [12], 37.7% in experiment [13], 12.2% in the experiment listed under Homo sapiens and 8.2% in experiment [2].

Take `C=C(CC[C@H](O)[C@@]1(C)CC[C@H](C(C)(C)O)O1)[C@H]1CC[C@H]2O[C@@H]([C@]3(C)CC[C@@H](C(C)(C)O)O3)CC[C@]2(C)O1`: the inhibition in [1] worked out at 55.4%; in the experiment listed under Homo sapiens, 0%; in experiment [2], 0%; in experiment [3], 40.4%.

On to `C=C([C@H](O)C[C@H](O)[C@@]1(C)CC[C@H](C(C)(C)O)O1)[C@H]1CC[C@H]2O[C@@H]([C@]3(C)CC[C@@H](Br)C(C)(C)O3)CC[C@]2(C)O1`, for which the inhibition in [1] came to 79.3%; in the experiment filed under Homo sapiens, 45.6%; in [2] it was 42.2%; in experiment [3] it was 65.1%.

Regarding `C/C(=C\C[C@H](O)[C@@]1(C)CC[C@H](C(C)(C)O)O1)[C@H]1CC[C@H]2O[C@@H]([C@]3(C)CC[C@@H](Br)C(C)(C)O3)CC[C@@]2(C)O1`, the inhibition in experiment [14] turned out to be 100%; in the experiment listed under Homo sapiens, 41.9%; in [2] it was 17.9%; in experiment [3], 99.5%.

On to `C=C([C@@H](O)C[C@H](O)[C@@]1(C)CC[C@H](C(C)(C)O)O1)[C@H]1CC[C@H]2O[C@@H]([C@]3(C)CC[C@@H](Br)C(C)(C)O3)CC[C@]2(C)O1`, for which the inhibition in experiment [1] was determined as 100%; in the experiment listed under Homo sapiens, 93.4%; in [2] it was 41.1%; in experiment [3], 100%.

Turning to `C=C(CC[C@H](O)[C@@]1(C)CC[C@H](C(C)(C)O)O1)[C@H]1CC[C@H]2O[C@@H]([C@]3(C)CC[C@](OC)(C(C)C)O3)CC[C@]2(C)O1`, the inhibition is 55.4% in [1], 2.7% in the experiment filed under Homo sapiens, 0% in experiment [2] and 43.1% in experiment [3].

As to `CC(CCC[C@H]1O[C@@H]([C@]2(C)CC[C@@H](Br)C(C)(C)O2)CC[C@]1(C)O)CC[C@H](O)[C@@]1(C)CC[C@H](C(C)(C)O)O1` (stereo partly specified), the inhibition in experiment [1] stood at 74.5%; in the experiment listed under Homo sapiens, 45.9%; in [7] it was 43.6%; in [3], 57.8%.

For `C=C(CC[C@H](O)[C@@]1(C)CC[C@H](C(C)(C)O)O1)[C@H]1CC[C@H]2O[C@@H]([C@]3(C)CC[C@@H](C(C)(C)OC)O3)CC[C@]2(C)O1`, the inhibition in experiment [1] amounted to 57.2%; in the experiment filed under Homo sapiens it was 4.7%; in experiment [2] it was 0%; in experiment [3], 65.1%.

As for `C=C(CC[C@H]1O[C@@H](C(C)(C)O)CC[C@]1(C)O)[C@H]1CC[C@H]2O[C@@H]([C@]3(C)CC[C@@H](Br)C(C)(C)O3)CC[C@]2(C)O1`, the inhibition was determined as 81.3% in experiment [1], 6.2% in the experiment filed under Homo sapiens, 0% in [2] and 74.7% in experiment [3].
